The subject of assay [1] is liver injury induced by D-galactosamine. Briefly: Experimental Example 1b: effect on liver injury induced by D-galactosamine in rats (group I-b). The note with it: Rattus norvegicus, po, 48 h, Table 1b, D-galactosamine 400 mg/kg, compound 100 mg/kg in 0.5% methylcellulose. It is filed as in vivo, male Fischer (F344) rats.
The test system is the same in assay [2]. The assay is described as follows: Experimental Example 2b: inhibition of liver injury in rats (group I-b), method given as that of Experimental Example 1b. It is filed as in vivo, male Fischer (F344) rats. The note with it: Rattus norvegicus, 48 h; Table 2b; compound 100 mg/kg oral in 0.5% methylcellulose; read-out: Inhibition ratio (%) GPT. Here is the method: The test was conducted in the same manner as shown in Experimental Example 1b except that the test compound was orally administered to the rats in a dose of 100 mg/kg in 0.5% methylcellulose solution.

Assay [3] can be described thus: Study of plants used as folk medicines for liver trouble remedies. The note with it: in words.
Assay [4] relates to liver injury induced by D-galactosamine. The assay is described as follows: Experimental Example 1f: effect on liver injury induced by D-galactosamine in rats (group I-f). The assay is classed as in vivo, male Fischer (F344) rats. The note with it: Rattus norvegicus, po, 48 h, Table 1f, D-galactosamine 400 mg/kg, compound 100 mg/kg in 0.5% methylcellulose. Here is the method: 300 mg/kg of D-galactosamine was administered to male Fischer (F344) rats weighing around 180 g by subcutaneous injection to induce liver injury. Each compound was dissolved in distilled water was given by oral administration in a dose of 50 mg/kg one hour after the injection of D-galactosamine.
The D-galactosamine was used in the form of a solution having a concentration of 200 mg/ml, obtained by dissolving D-galactosamine in a physiological saline solution to obtain a dilute D-galactosamine solution and adjusting the pH of the dilute solution to 7.0 with 10N aqueous potassium hydroxide.
Blood was collected from the rat's tail vein 48 h after the injection of D-galactosamine. The blood coagulation time was determined by the hepaplastin test (HPT) and GPT activity in the blood plasma was determined by an enzymatic method.
The test was conducted in the same way as shown in Experimental Example 1a except that 400 mg/kg of D-galactosamine was administered in its physiological saline solution and each test compound was used in an amount of 100 mg/kg in 0.5% methylcellulose liquid.

[5] abbreviates: read-out: Inhibition ratio (%) GPT.
Setting [6] is: read-out: Inhibition ratio (%) HPT.

The values below come from US5292901A, “Benzodioxole derivatives” (Eisai Co., Ltd., priority 1987, dated 1994).

`C[S+]([O-])CCc1ccc2c(c1)OCO2` (centres unmarked) [Compound 26]: the figures for the inhibition in vivo at 100 mg/kg in assay [1] (setting [5]), in assay [1] (setting [6]) and in assay [2] were 100%, 100% and 97%, respectively.
As to `CS(=O)(=O)CCc1ccc2c(c1)OCO2` [Compound 28], the inhibition in vivo at 100 mg/kg in assay [1] (setting [5]) worked out at 95%; in assay [1] (setting [6]) it was 98%; in assay [2], 97%.
As for `O=C(O)CSCCc1ccc2c(c1)OCO2` [Compound 8], the inhibition in vivo at 100 mg/kg in assay [2] came to 53%.
Regarding `NC(=O)CSCCc1ccc2c(c1)OCO2` [Compound 16], the inhibition in vivo at 100 mg/kg was determined as 86% in assay [1] (setting [5]), 94% in assay [1] (setting [6]) and 61% in assay [2].
Turning to `NC(=O)CCSCCc1ccc2c(c1)OCO2` [Compound 17], the inhibition in vivo at 100 mg/kg in assay [1] (setting [5]) was determined as 97%; in assay [1] (setting [6]), 99%; in assay [2], 98%.
For the compound `OCCSSSCc1ccccc1` [2-[(phenylmethyl)trithio]ethanol], the “effect as liver trouble remedy” value in assay [3] is listed as “effective as liver trouble remedies”.
On to `CCOC(=O)CSCCc1ccc2c(c1)OCO2` [Compound 25], for which the inhibition in vivo at 100 mg/kg in assay [1] (setting [5]) turned out to be 34%; in assay [1] (setting [6]), 61%; in assay [2], 21%.
Turning to `O=C(O)CCSCCc1ccc2c(c1)OCO2` [Compound 9], the inhibition in vivo at 100 mg/kg in assay [1] (setting [5]) is 100%; in assay [1] (setting [6]), 99%; in assay [2], 98%.
In the case of `O=C(O)CCCCSCCc1ccc2c(c1)OCO2` [Compound 11], the results for the inhibition in vivo at 100 mg/kg in assay [1] (setting [5]), in assay [1] (setting [6]) and in assay [2] were 96%, 98% and 90%, respectively.
Regarding `CC(CC(=O)O)SCCc1ccc2c(c1)OCO2` (centres unmarked) [Compound 13], the inhibition in vivo at 100 mg/kg in assay [1] (setting [5]) was determined as 99%; in assay [1] (setting [6]) it was 99%; in assay [2] it was 86%.
Take `OCCCSCCc1ccc2c(c1)OCO2` [Compound 4]: the inhibition in vivo at 100 mg/kg in assay [1] (setting [5]) was 98%; in assay [1] (setting [6]) it was 98%; in assay [2] it was 93%.
Take `O=C(O)CCCSCCc1ccc2c(c1)OCO2` [Compound 10]: the inhibition in vivo at 100 mg/kg in assay [1] (setting [5]) was 89%; in assay [1] (setting [6]) it was 99%; in assay [2] it was 43%.
In the case of `Cc1cc2c(cc1C(C)SCC(N)=O)OCO2` (centres unmarked) [Compound 13], the inhibition in vivo at 100 mg/kg in assay [4] (setting [5]) amounted to 50%; in assay [4] (setting [6]), 17%.
As for `OC1OCC(Cc2ccc3c(c2)OCO3)C1Cc1ccc2c(c1)OCO2` (centres unmarked) [cubebin], the “effect as liver trouble remedy” value in assay [3] is recorded as “effective as liver trouble remedies”.
